Test results: patent publication US12304890B2, “R-type pyridyloxycarboxylic acid, salt and ester derivative thereof, and preparation method therefor, and herbicidal composition and application thereof” (Qingdao Kingagroot Chemical Compound Co., Ltd., priority 2018, dated 2025)

Experiments:
Type in all cases: in vivo
Digitaria sanguinalis = assay: Post-emergence test experiment, Digitaria sanguinalis; details: for Digitaria sanguinalis, activity level (growth inhibition rate): 3 weeks; for Activity level (growth inhibition rate), Digitaria sanguinalis: 1000 g a.i./ha, 3 weeks in greenhouse, fresh weight inhibition
How it was run: (§1)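 Greenhouse-grown plants sprayed at the 2-3 leaf stage, 2 weeks after sowing, with compound in acetone/tween-80 diluted in water plus 1.5 L/ha methyl oleate emulsifiable concentrate as synergist. Effect scored 3 weeks later as fresh weight inhibition rate.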

Monochoria vaginalis = assay: Weed control effect evaluation in rice field; details: paddy pot, 0.5 leaf stage, 1000 g a.i./ha, 14 days; weed resistant to pyrazosulfuron-ethyl and penoxsulam
Procedure: Rice field soil was loaded into a 1/1,000,000 ha pot. The seeds of Monochoria vaginalis were sowed and gently covered with soil, then left to stand still in greenhouse in the state of 0.5-1 cm of water storage. It was kept at 3-4 cm of water storage thereafter. The weeds were treated by dripping the WP or SC water diluents prepared according to the common preparation method of the compounds of the present invention with pipette homogeneously to achieve specified effective amount when Monochoria vaginalis reached 0.5 leaf stage.
(§2) The fertility condition of Monochoria vaginalis 14 days and rice 21 days after the treatment of the compound of the invention with the naked eye.

rice (japonica rice) = assay: Transplanted rice safety evaluation; details: transplanted 3-leaf japonica rice, 1000 g a.i./ha, 21 days after treatment
Procedure: In addition, the rice field soil that loaded into the 1/1,000,000 ha pot was leveled to keep water storage at 3-4 cm depth. The 3-leaf stage rice (japonica rice) was transplanted at 3 cm of transplanting depth the next day. The compound of the present invention was treated by the same way after 5 days of transplantation.
as §2

Echinochloa crusgalli = assay: Post-emergence test experiment, Echinochloa crusgalli; details: for Echinochloa crusgalli, activity level (growth inhibition rate): 3 weeks; for Activity level (growth inhibition rate), Echinochloa crusgalli: 1000 g a.i./ha, 3 weeks in greenhouse, fresh weight inhibition
How it was run: as §1

[1] = test system: Monocotyledonous and dicotyledonous weed seeds and main crop seeds; assay: Post-emergence test experiment, other weeds and crops (Table 4, 1000 g a.i./ha); details: 3 weeks in greenhouse, fresh weight inhibition
How it was run: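 Weed and crop seeds (wheat, corn, rice, soybean, cotton, oilseed, millet, sorghum) sown in soil pots in a greenhouse and sprayed at 2-3 leaf stage, 2 weeks after sowing. Compound in acetone/tween-80 with methyl oleate concentrate (1.5 L/ha) as synergist. Effect recorded as fresh-weight growth inhibition rate.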

[2] = test system: Semen Euphorbiae Lathyridis; assay: Post-emergence test experiment, Semen Euphorbiae Lathyridis; details: 3 weeks
How it was run: as §1

rice = assay: Post-emergence test experiment, rice (crop selectivity); details: 3 weeks
How it was run: as §1

[3] = 200 g a.i./ha, weed resistant to cyhalofop-butyl
[4] = 200 g a.i./ha, weed resistant to ALS inhibitor and ACCe herbicides

Structure (SMILES) | Digitaria sanguinalis, activity level (growth inhibition rate) (Digitaria sanguinalis; [3]) | Digitaria sanguinalis, activity level (growth inhibition rate) (Digitaria sanguinalis; 400 g a.i./ha, resistant weed) | Activity level (growth inhibition rate), Digitaria sanguinalis (Digitaria sanguinalis) | Monochoria Vaginalis, activity level 0-5 (Monochoria vaginalis) | rice, safety level 0-5 (rice (japonica rice)) | Echinochloa crusgalli, activity level (growth inhibition rate) (Echinochloa crusgalli; [4]) | Echinochloa crusgalli, activity level (growth inhibition rate) (Echinochloa crusgalli; 400 g a.i./ha, resistant weed) | Activity level (growth inhibition rate), Echinochloa crusgalli (Echinochloa crusgalli) | Activity level (growth inhibition rate), Abutilon theophrasti Medic. [1] | Activity level (growth inhibition rate), Galium aparine [1] | Activity level (growth inhibition rate), Monochoria Vaginalis [1] | Semen Euphorbiae Lathyridis, activity level (growth inhibition rate) [2, 3] | Semen Euphorbiae Lathyridis, activity level (growth inhibition rate) ([2]; 400 g a.i./ha, resistant weed) | rice, activity level (growth inhibition rate) (rice; 200 g a.i./ha) | rice, activity level (growth inhibition rate) (rice; 400 g a.i./ha)
CCOC(=O)[C@@H](C)Oc1nc(F)c(Cl)c(N)c1Cl [Compound 2-71] | 5 (Level 5: the growth inhibition rate is greater than 85%) | 5 (Level 5: the growth inhibition rate is greater than 85%) | 5 (Level 5: the growth inhibition rate is greater than 85%) | 5 (Level 5: the growth inhibition rate is greater than 85%) | 0 (Level 0: the growth inhibition rate is less than 5%) | 5 (Level 5: the growth inhibition rate is greater than 85%) | 5 (Level 5: the growth inhibition rate is greater than 85%) | 5 (Level 5: the growth inhibition rate is greater than 85%) | 5 (Level 5: the growth inhibition rate is greater than 85%) | 5 (Level 5: the growth inhibition rate is greater than 85%) | 5 (Level 5: the growth inhibition rate is greater than 85%) | 5 (Level 5: the growth inhibition rate is greater than 85%) | 5 (Level 5: the growth inhibition rate is greater than 85%) | 0 (Level 0: the growth inhibition rate is less than 5%) | 2 (Level 2: the growth inhibition rate is equal to or greater than 20% and less than 40%)
CC(Oc1nc(F)c(Cl)c(N)c1Cl)C(=O)OCc1ccccc1 (centres unmarked) [Compound 2-300] | 5 (Level 5: the growth inhibition rate is greater than 85%) |  | 5 (Level 5: the growth inhibition rate is greater than 85%) | 5 (Level 5: the growth inhibition rate is greater than 85%) | 0 (Level 0: the growth inhibition rate is less than 5%) | 5 (Level 5: the growth inhibition rate is greater than 85%) |  | 5 (Level 5: the growth inhibition rate is greater than 85%) | 5 (Level 5: the growth inhibition rate is greater than 85%) | 5 (Level 5: the growth inhibition rate is greater than 85%) | 5 (Level 5: the growth inhibition rate is greater than 85%) | 5 (Level 5: the growth inhibition rate is greater than 85%) |  | 0 (Level 0: the growth inhibition rate is less than 5%) | 
